Results taken from patent US9215875B2 (priority 2008, dated 2015).
Like-named read-outs stand apart in the source and are kept apart here.

Test: log P determination by HPLC on reversed-phase columns (C 18), acidic range pH 2.7
Assay type: physicochemical
Settings: for logP: HPLC; for chromatographic logP: reversed-phase HPLC column (C 18)
[1] = pH 2.7, only value, or main isomer
[2] = pH 2.7, second-listed (minor) isomer of the isomer mixture
[3] = pH 2.7, HPLC, pH 2.7, only value, or main isomer, read-out: logP
[4] = pH 2.7, HPLC, pH 2.7, second-listed (minor) isomer of the isomer mixture, read-out: logP
[5] = pH 2.7, pH 2.7, preparation example, minor isomer, read-out: log P (pH2.7)
[6] = pH 2.7, pH 2.7, preparation example, only value or main isomer, read-out: log P (pH2.7)

Structure (SMILES) | logP [1] | logP [2] | other results
Cc1cc(C(F)(F)F)nn1CC(=O)N1CCC(c2nc(C=NOCc3ccccc3)cs2)CC1 (mixture of isomers) [I-2] | 3.63 | 3.80 | –
Cc1cc(C(F)(F)F)nn1CC(=O)N1CCC(c2nc(C=NOC(C)c3ccccc3)cs2)CC1 (mixture of isomers) [I-3] | 3.92 | 4.07 | –
CC(=NOc1ccccc1)c1csc(C2CCN(C(=O)Cn3nc(C(F)(F)F)cc3C)CC2)n1 (mixture of isomers) [I-4] | 4.23 | 4.46 | –
Cc1ccccc1CON=Cc1csc(C2CCN(C(=O)Cn3nc(C(F)(F)F)cc3C)CC2)n1 (mixture of isomers) [I-6] | 3.96 | 4.12 | –
Cc1cc(C(F)(F)F)nn1CC(=O)N1CCC(c2nc(C=NOCc3ccc(Cl)cc3)cs2)CC1 (mixture of isomers) [I-7] | 4.04 | 4.23 | –
Cc1cc(C(F)(F)F)nn1CC(=O)N1CCC(c2nc(C=NOC(C)c3ccc(Cl)cc3)cs2)CC1 (mixture of isomers) [I-8] | 4.34 | 4.50 | –
Cc1cc(C(F)(F)F)nn1CC(=O)N1CCC(c2nc(C=NOCc3ccccc3F)cs2)CC1 (mixture of isomers) [I-9] | 3.68 | 3.84 | –
CC(=NOCc1ccccc1)c1csc(C2CCN(C(=O)Cn3nc(C(F)(F)F)cc3C)CC2)n1 (mixture of isomers) [I-10] | 4.07 | 4.28 | –
Cc1cc(C(F)(F)F)nn1CC(=O)N1CCC(c2nc(C=NOC3CCCCC3)cs2)CC1 (mixture of isomers) [I-33] | 4.26 | 4.48 | –
O=C(Cn1nc(C(F)F)cc1C(F)F)N1CCC(c2nc(C=NOC3CCCCC3)cs2)CC1 (mixture of isomers) [I-34] | 4.12 | 4.33 | –
O=C(Cc1cc(Cl)ccc1Cl)N1CCC(c2nc(C=NOC3CCCCC3)cs2)CC1 (mixture of isomers) [I-35] | 5.10 | 5.45 | –
Cc1cc(C(F)(F)F)nn1CC(=O)N1CCC(c2nc(C=NOCc3c(F)cccc3F)cs2)CC1 (mixture of isomers) [I-36] | 3.70 | 3.86 | –
O=C(Cn1nc(C(F)F)cc1C(F)F)N1CCC(c2nc(C=NOCc3c(F)cccc3F)cs2)CC1 (mixture of isomers) [I-37] | 3.58 | 3.74 | –
O=C(Cc1cc(Cl)ccc1Cl)N1CCC(c2nc(C=NOCc3c(F)cccc3F)cs2)CC1 (mixture of isomers) [I-38] | 4.36 | 4.60 | –
CC(=NOCc1c(F)cccc1F)c1csc(C2CCN(C(=O)Cn3nc(C(F)(F)F)cc3C)CC2)n1 (mixture of isomers) [I-41] | 4.11 | 4.32 | –
CC(=NOCc1c(F)cccc1F)c1csc(C2CCN(C(=O)Cn3nc(C(F)F)cc3C(F)F)CC2)n1 (mixture of isomers) [I-42] | 4.00 | 4.19 | –
CC(=NOCc1c(F)cccc1F)c1csc(C2CCN(C(=O)Cc3cc(Cl)ccc3Cl)CC2)n1 (mixture of isomers) [I-43] | 4.91 | 5.16 | –
CC(=NOC1CCCCC1)c1csc(C2CCN(C(=O)Cn3nc(C(F)(F)F)cc3C)CC2)n1 (mixture of isomers) [I-44] | 4.02 | 4.12 | –
CC(=NOC1CCCCC1)c1csc(C2CCN(C(=O)Cn3nc(C(F)F)cc3C(F)F)CC2)n1 (mixture of isomers) [I-45] | 4.69 | 4.88 | –
CC(=NOC1CCCCC1)c1csc(C2CCN(C(=O)Cc3cc(Cl)ccc3Cl)CC2)n1 (mixture of isomers) [I-46] | 5.87 | 6.17 | –
Cc1cc(C(F)(F)F)nn1CC(=O)N1CCC(c2nc(C=NOc3ccccc3)cs2)CC1 [I-1, 2-(1-{[5-Methyl-3-(trifluoromethyl)-1H-pyrazol-1-yl]acetyl}piperidin-4-yl)-1,3-thiazole-4-carbaldehyde O-phenyl oxime] | – | – | chromatographic logP [3]: 3.74; chromatographic logP [4]: 3.94; chromatographic logP [5]: 3.94; chromatographic logP [6]: 3.74
CC(=NOC(C)c1ccccc1)c1csc(C2CCN(C(=O)Cn3nc(C(F)(F)F)cc3C)CC2)n1 (centres unmarked) [I-5, 2-[5-Methyl-3-(trifluoromethyl)-1H-pyrazol-1-yl]-1-(4-{4-[N-(1-phenylethoxy)ethanimidoyl]-1,3-thiazol-2-yl}piperidin-1-yl)ethanone] | – | – | chromatographic logP [3]: 4.38; chromatographic logP [4]: 4.54; chromatographic logP [5]: 4.54; chromatographic logP [6]: 4.38
Cc1cc(C(F)(F)F)nn1CC(=O)N1CCC(c2nc(C=NN(C)Cc3ccccn3)cs2)CC1 [I-11] | 1.82 | – | –

Structure (SMILES) | logP [1] | logP [2] | other results
Cc1cc(C(F)(F)F)nn1CC(=O)N1CCC(c2nc(C=NN(Cc3ccccc3)c3ccccc3)cs2)CC1 [I-12] | 4.70 | – | –
Cc1cc(C(F)(F)F)nn1CC(=O)N1CCC(c2nc(C=NN(c3ccccc3)c3ccccc3)cs2)CC1 [I-13] | 4.77 | – | –
Cc1cc(C(F)(F)F)nn1CC(=O)N1CCC(c2nc(C=NN(C)c3ccc(C(F)(F)F)cn3)cs2)CC1 [I-14, 2-(1-{[5-Methyl-3-(trifluoromethyl)-1H-pyrazol-1-yl]acetyl}piperidin-4-yl)-1,3-thiazole-4-carbaldehyde methyl[5-(trifluoromethyl)pyridin-2-yl]hydrazone] | – | – | chromatographic logP [3]: 4.23; chromatographic logP [6]: 4.23
Cc1cc(C(F)(F)F)nn1CC(=O)N1CCC(c2nc(C=NN(C)c3ccccc3)cs2)CC1 [I-15] | 3.83 | – | –
Cc1cc(C(F)(F)F)nn1CC(=O)N1CCC(c2nc(C=NN3CCCCC3)cs2)CC1 [I-16] | 3.00 | – | –
CC(=NN1CCCCC1)c1csc(C2CCN(C(=O)Cn3nc(C(F)(F)F)cc3C)CC2)n1 [I-17, 2-[5-Methyl-3-(trifluoromethyl)-1H-pyrazol-1-yl]-1-(4-{4-[N-(piperidin-1-yl)ethanimidoyl]-1,3-thiazol-2-yl}piperidin-1-yl)ethanone] | – | – | chromatographic logP [3]: 3.69; chromatographic logP [6]: 3.69
Cc1cc(C(F)(F)F)nn1CC(=O)N1CCC(c2nc(C=NOCc3ccccc3Cl)cs2)CC1 [I-18] | 4.04 | – | –
CCCCCCON=C(C)c1csc(C2CCN(C(=O)Cn3nc(C(F)(F)F)cc3C)CC2)n1 [I-19] | 5.13 | – | –
CCCCCON=C(C)c1csc(C2CCN(C(=O)Cn3nc(C(F)(F)F)cc3C)CC2)n1 [I-20] | 4.71 | – | –
CC(=NOCCCc1ccccc1)c1csc(C2CCN(C(=O)Cn3nc(C(F)(F)F)cc3C)CC2)n1 [I-21] | 4.66 | – | –
CC(=NOCCCCc1ccccc1)c1csc(C2CCN(C(=O)Cn3nc(C(F)(F)F)cc3C)CC2)n1 [I-22] | 4.97 | – | –
O=C(Cn1nc(C(F)(F)F)cc1C(F)(F)F)N1CCC(c2nc(C=NOCc3ccc(Cl)cc3)cs2)CC1 [I-24] | 4.56 | – | –
CCc1cc(CC)n(CC(=O)N2CCC(c3nc(C=NOCc4ccc(Cl)cc4)cs3)CC2)n1 [I-25] | 3.70 | – | –
CCc1cc(C(F)(F)F)nn1CC(=O)N1CCC(c2nc(C=NOCc3ccc(Cl)cc3)cs2)CC1 [I-26] | 4.30 | – | –
O=C(Cn1nc(C(F)F)cc1C(F)F)N1CCC(c2nc(C=NOCc3ccc(Cl)cc3)cs2)CC1 [I-27] | 3.90 | – | –
CC(C)(C)c1cc(C(F)(F)F)n(CC(=O)N2CCC(c3nc(C=NOCc4ccc(Cl)cc4)cs3)CC2)n1 [I-28] | 4.99 | – | –
CC(C)(C)c1cc(C(F)(F)F)nn1CC(=O)N1CCC(c2nc(C=NOCc3ccc(Cl)cc3)cs2)CC1 [I-29] | 4.75 | – | –
CC(C)(C)c1cc(C(F)(F)C(F)(F)F)n(CC(=O)N2CCC(c3nc(C=NOCc4ccc(Cl)cc4)cs3)CC2)n1 [I-30] | 5.31 | – | –
CC(C)(C)c1cc(C(F)(F)C(F)(F)F)nn1CC(=O)N1CCC(c2nc(C=NOCc3ccc(Cl)cc3)cs2)CC1 [I-31] | 5.31 | – | –
CC(C)c1cc(C(F)(F)F)n(CC(=O)N2CCC(c3nc(C=NOCc4ccc(Cl)cc4)cs3)CC2)n1 [I-32] | 4.56 | – | –
Cc1cc(C(F)(F)F)nn1CC(=O)N1CCC(c2nc(C=NOc3ccccc3Br)cs2)CC1 [I-39] | 4.14 | – | –
O=C(Cc1cc(Cl)ccc1Cl)N1CCC(c2nc(C=NOc3ccccc3Br)cs2)CC1 [I-40] | 4.90 | – | –
CC(=O)c1csc(C2CCN(C(=O)Cn3nc(C(F)(F)F)cc3C)CC2)n1 [IV-1, 1-[4-(4-Acetyl-1,3-thiazol-2-yl)piperidin-1-yl]-2-[5-methyl-3-(trifluoromethyl)-1H-pyrazol-1-yl]ethanone] | – | – | chromatographic logP [6]: 2.25
